# Results reported in ChEMBL document CHEMBL1201862, “PubChem BioAssay data set” (2004).
# Activity calls are given as the source filed them.
# Key:
# [1] = inhibitors of HIV Env-driven cell fusion, dose response, cherry-pick (AID 652057); format: functional, cell-based
# [2] = ZM109 Env clade C HIV-1 fusion inhibitors, dose response, HeLa effector, CEM target cells, luciferase, cherry-pick (AID 652058); format: functional, cell-based
# [3] = off-target signal loss in HeLa-CEM21 co-culture – HeLa F-luc CTL cells, cherry-picked, counter-screen for HIV-1 Env fusion inhibitor project, dose response (AID 652040); format: functional, cell-based;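 also: potency for signal decrease marking cytotoxic or nonspecific inhibition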
# [4] = inhibitors of clade B AD8 Env fusion, dose response, cell-based, cherry-pick (AID 652062); format: functional;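 also: luciferase signal from cell-cell fusion driven by HIV-1 clade B AD8 Env; potency is for inhibitors of fusion seen as a drop in luminescence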
# Genome polyprotein = Genome polyprotein (dengue virus type 2, UniProt P29990); experiment: Dengue-2 NS5 methyltransferase inhibitors, primary screen, biochemical, confirmation dose response (AID 588689); format: functional
# [5] = target: T1, RNA-binding protein pos-1 (Caenorhabditis elegans, UniProt G5EF15); experiment: inhibitors of POS-1/mex-3 RNA binding, dose response, biochemical, fluorescence polarization (AID 1964);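 also: purified POS-1 fused to maltose binding protein made in E. coli; potency of compounds blocking POS-1 binding to fluorescent RNA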
# T1 sequence (G5EF15 whole entry): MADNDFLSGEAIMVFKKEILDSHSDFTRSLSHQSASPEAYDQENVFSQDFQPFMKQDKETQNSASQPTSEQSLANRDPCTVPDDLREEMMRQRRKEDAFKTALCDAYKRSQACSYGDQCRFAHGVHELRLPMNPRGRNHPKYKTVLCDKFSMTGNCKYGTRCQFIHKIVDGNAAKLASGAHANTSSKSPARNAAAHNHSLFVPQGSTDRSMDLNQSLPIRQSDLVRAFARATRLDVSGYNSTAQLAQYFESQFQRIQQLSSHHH
# [6] = target: T2, Zinc finger protein mex-5 (Caenorhabditis elegans, UniProt Q9XUB2); experiment: MEX-5/TCR-2 RNA interaction inhibitors, dose response, biochemical, C. elegans, fluorescence polarization (AID 1960)
# T2 sequence (Q9XUB2 whole entry): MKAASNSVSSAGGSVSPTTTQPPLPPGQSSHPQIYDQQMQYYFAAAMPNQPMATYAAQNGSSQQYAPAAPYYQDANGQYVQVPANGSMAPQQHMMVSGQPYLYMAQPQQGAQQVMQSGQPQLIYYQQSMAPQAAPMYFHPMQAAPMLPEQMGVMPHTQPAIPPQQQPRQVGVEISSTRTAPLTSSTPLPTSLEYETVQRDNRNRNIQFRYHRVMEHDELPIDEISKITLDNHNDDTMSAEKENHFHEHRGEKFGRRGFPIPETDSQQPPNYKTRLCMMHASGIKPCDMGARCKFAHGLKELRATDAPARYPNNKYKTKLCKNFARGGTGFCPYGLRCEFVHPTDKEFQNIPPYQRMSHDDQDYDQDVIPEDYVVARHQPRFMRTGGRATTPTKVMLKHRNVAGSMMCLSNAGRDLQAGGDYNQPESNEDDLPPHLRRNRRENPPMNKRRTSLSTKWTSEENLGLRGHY
# [7] = target: T3, Short transient receptor potential channel 4 (Mus musculus, UniProt Q9QUQ5); experiment: mouse TRPC4 channel activators, dose response, cell-based, HEK293 TRPC4/mu-opioid, Fluo-4 calcium (AID 434937); format: functional
# T3 sequence (Q9QUQ5 whole entry): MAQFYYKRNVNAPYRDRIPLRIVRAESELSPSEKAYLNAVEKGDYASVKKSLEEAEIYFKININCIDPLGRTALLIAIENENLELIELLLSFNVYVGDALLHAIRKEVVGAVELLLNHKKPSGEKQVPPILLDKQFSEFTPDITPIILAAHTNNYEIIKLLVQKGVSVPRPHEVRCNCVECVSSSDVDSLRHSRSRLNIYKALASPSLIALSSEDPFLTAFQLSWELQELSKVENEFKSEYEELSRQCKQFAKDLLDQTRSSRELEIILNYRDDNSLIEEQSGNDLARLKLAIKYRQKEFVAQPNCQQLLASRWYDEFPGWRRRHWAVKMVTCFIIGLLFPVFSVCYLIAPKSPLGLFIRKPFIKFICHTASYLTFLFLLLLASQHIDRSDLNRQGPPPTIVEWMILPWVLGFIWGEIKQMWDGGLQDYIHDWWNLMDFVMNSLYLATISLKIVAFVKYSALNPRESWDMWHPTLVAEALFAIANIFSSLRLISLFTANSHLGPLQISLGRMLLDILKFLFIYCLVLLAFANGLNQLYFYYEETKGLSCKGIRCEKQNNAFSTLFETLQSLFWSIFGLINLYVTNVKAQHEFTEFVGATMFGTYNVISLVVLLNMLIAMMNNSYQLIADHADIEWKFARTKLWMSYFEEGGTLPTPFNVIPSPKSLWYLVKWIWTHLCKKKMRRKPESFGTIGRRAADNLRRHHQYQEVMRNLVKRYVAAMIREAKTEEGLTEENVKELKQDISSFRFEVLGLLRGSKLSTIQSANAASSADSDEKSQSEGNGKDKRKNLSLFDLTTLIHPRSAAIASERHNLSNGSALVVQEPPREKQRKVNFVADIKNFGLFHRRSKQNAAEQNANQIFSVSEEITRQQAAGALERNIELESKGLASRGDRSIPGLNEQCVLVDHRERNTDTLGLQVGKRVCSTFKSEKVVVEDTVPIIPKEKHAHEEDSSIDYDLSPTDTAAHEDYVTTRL
# HEK293 = experiment: inhibitors of LMP1-driven NF-kB reporter, dose response, cell-based, HEK293, luciferase, cherry-pick (AID 588343); format: functional; conditions: Homo sapiens
# Fatty acid synthase [8] = target: T4, Fatty acid synthase (Homo sapiens, UniProt P49327); experiment: FAS thioesterase domain inhibitors, dose response, biochemical, endpoint fluorescence intensity, uHTS hits (AID 624327); format: functional;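 also: fluorescence from hydrolysis of an O-methyl fluorescein acyl ester substrate by the enzyme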
# Fatty acid synthase [9] = target: T4, Fatty acid synthase; experiment: FAS thioesterase domain inhibitors, dose response, biochemical, kinetic fluorescence intensity (AID 624326); format: functional;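 also: rate of fluorescence rise from hydrolysis of a fluorogenic O-methyl fluorescein ester substrate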
# [10] = inhibitors of firefly luciferase expression or activity, dose response, H4 neuroglioma cells, luminescence (AID 1990); format: functional, cell-based
# [11] = Luminescence Cell-Based Dose Response HTS to Identify Inhibitors of 5'UTR Stem-Loop Driven Prion Protein mRNA Translation in H4 Neuroglioblastoma Cells. [Related pubchem assays: 1827 (Project Summary), 1813 (Primary HTS)]; format: functional
# [12] = target: T5, Heat shock factor protein 1 (Mus musculus, UniProt P38532); experiment: inhibition of MG132-induced HSE-luciferase signal, confirmation, cell-based, NIH3T3, luminescence, dose retest (AID 2382); format: functional;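 also: NIH3T3 fibroblasts with HSF1-driven luciferase reporter stressed by proteasome inhibitor MG132; luminescence from HSF1-driven luciferase expression after 8 hours of MG132 stress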
# T5 sequence (P38532 whole entry): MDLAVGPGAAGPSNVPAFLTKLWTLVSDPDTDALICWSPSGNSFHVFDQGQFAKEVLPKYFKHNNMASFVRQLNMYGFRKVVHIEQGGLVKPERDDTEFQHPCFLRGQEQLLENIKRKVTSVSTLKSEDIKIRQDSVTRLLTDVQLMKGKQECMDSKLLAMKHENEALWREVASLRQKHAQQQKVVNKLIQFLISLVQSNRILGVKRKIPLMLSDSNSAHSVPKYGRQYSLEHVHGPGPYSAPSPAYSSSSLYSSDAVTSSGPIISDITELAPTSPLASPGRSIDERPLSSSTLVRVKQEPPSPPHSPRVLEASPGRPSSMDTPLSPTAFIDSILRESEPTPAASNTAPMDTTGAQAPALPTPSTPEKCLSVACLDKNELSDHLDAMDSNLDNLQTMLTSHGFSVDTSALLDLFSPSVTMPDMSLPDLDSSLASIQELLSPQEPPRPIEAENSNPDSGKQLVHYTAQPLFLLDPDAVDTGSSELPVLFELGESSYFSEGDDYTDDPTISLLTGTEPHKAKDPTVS
# [13] = inhibitors of SNCA 5'UTR-driven reporter translation, confirmation, H4 neuroglioma cells, luminescence (AID 1988); format: functional, cell-based
# [14] = inhibitors of intracellular T. cruzi replication, confirmation, NIH3T3 host cells, beta-gal luminescence (AID 2044); format: functional, cell-based;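 also: intracellular parasites grown in NIH/3T3 mouse fibroblasts as host cells; luminescent beta-galactosidase reporter signal from transgenic T. cruzi replicating inside host cells; inhibitors lower the luminescence signal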
# [15] = growth suppression of PTEN-null colon cells, dose response, cell-based, HCT116 PTEN knockout (AID 1047); format: functional;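 also: HCT116 colon tumor cells with PTEN knocked out; cells exposed to compound for 60 hours before readout; potency for loss of cell viability measured by luminescence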
# [16] = cytotoxicity toward NIH3T3 fibroblasts, dose response, counter-screen, cell-based, ATP luminescence, mouse fibroblasts (AID 2010); format: functional;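 also: cells exposed to compound for about 90 hours before reading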
# [17] = growth suppression of beta-catenin-knockout colon cells, dose response, cell-based, HCT116, human colon tumor (AID 1045); format: functional;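 also: HCT116 colon tumor cells with beta catenin knocked out; cells exposed to compound for 60 hours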
# [18] = cytotoxicity in HEK-293T cells, dose response, cytotoxicity control for TCR NF-kB inhibitor project, luminescence, T-cell screen hits (AID 489026); format: functional, cell-based;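 also: cells exposed to compound about 14 hours before the viability readout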
# [19] = target: Glyceraldehyde-3-phosphate dehydrogenase (Homo sapiens, UniProt P04406)
# [20] = target: T6, Corticotropin-releasing factor receptor 2/Corticotropin-releasing factor-binding protein (Homo sapiens, UniProt P24387+Q13324); experiment: Dose Response confirmation of uHTS hits for small molecule antagonists of the CRF-binding protein and CRF-R2 receptor complex.; format: functional; conditions: read-out: IC50_Mean
# T6 sequence (Q13324 whole entry): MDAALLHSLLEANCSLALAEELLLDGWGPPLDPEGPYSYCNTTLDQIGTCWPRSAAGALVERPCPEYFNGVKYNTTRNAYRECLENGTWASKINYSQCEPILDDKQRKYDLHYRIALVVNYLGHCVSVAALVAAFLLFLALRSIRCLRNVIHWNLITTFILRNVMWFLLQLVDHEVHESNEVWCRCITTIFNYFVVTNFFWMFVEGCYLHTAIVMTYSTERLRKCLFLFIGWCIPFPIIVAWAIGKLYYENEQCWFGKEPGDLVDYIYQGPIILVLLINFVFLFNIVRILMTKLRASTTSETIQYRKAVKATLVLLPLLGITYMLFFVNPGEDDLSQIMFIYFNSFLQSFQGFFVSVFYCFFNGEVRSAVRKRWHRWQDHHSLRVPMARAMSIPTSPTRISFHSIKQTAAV
# T6 sequence (P24387 whole entry): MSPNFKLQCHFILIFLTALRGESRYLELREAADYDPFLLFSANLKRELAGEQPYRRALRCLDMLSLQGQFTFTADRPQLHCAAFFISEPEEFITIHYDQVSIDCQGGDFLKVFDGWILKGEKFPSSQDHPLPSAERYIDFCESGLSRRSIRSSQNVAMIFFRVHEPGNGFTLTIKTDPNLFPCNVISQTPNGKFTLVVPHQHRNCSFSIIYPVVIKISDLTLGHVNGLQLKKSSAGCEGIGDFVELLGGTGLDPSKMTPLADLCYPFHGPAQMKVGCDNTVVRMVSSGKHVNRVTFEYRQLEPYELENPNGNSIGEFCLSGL
# [21] = target: T6, Corticotropin-releasing factor receptor 2/Corticotropin-releasing factor-binding protein; experiment: activators of CRF receptor 2 with binding protein – uHTS hits, confirmation (AID 602473); format: functional; conditions: read-out: EC50_Mean
# T4 sequence (P49327 whole entry, the tested form may be a part): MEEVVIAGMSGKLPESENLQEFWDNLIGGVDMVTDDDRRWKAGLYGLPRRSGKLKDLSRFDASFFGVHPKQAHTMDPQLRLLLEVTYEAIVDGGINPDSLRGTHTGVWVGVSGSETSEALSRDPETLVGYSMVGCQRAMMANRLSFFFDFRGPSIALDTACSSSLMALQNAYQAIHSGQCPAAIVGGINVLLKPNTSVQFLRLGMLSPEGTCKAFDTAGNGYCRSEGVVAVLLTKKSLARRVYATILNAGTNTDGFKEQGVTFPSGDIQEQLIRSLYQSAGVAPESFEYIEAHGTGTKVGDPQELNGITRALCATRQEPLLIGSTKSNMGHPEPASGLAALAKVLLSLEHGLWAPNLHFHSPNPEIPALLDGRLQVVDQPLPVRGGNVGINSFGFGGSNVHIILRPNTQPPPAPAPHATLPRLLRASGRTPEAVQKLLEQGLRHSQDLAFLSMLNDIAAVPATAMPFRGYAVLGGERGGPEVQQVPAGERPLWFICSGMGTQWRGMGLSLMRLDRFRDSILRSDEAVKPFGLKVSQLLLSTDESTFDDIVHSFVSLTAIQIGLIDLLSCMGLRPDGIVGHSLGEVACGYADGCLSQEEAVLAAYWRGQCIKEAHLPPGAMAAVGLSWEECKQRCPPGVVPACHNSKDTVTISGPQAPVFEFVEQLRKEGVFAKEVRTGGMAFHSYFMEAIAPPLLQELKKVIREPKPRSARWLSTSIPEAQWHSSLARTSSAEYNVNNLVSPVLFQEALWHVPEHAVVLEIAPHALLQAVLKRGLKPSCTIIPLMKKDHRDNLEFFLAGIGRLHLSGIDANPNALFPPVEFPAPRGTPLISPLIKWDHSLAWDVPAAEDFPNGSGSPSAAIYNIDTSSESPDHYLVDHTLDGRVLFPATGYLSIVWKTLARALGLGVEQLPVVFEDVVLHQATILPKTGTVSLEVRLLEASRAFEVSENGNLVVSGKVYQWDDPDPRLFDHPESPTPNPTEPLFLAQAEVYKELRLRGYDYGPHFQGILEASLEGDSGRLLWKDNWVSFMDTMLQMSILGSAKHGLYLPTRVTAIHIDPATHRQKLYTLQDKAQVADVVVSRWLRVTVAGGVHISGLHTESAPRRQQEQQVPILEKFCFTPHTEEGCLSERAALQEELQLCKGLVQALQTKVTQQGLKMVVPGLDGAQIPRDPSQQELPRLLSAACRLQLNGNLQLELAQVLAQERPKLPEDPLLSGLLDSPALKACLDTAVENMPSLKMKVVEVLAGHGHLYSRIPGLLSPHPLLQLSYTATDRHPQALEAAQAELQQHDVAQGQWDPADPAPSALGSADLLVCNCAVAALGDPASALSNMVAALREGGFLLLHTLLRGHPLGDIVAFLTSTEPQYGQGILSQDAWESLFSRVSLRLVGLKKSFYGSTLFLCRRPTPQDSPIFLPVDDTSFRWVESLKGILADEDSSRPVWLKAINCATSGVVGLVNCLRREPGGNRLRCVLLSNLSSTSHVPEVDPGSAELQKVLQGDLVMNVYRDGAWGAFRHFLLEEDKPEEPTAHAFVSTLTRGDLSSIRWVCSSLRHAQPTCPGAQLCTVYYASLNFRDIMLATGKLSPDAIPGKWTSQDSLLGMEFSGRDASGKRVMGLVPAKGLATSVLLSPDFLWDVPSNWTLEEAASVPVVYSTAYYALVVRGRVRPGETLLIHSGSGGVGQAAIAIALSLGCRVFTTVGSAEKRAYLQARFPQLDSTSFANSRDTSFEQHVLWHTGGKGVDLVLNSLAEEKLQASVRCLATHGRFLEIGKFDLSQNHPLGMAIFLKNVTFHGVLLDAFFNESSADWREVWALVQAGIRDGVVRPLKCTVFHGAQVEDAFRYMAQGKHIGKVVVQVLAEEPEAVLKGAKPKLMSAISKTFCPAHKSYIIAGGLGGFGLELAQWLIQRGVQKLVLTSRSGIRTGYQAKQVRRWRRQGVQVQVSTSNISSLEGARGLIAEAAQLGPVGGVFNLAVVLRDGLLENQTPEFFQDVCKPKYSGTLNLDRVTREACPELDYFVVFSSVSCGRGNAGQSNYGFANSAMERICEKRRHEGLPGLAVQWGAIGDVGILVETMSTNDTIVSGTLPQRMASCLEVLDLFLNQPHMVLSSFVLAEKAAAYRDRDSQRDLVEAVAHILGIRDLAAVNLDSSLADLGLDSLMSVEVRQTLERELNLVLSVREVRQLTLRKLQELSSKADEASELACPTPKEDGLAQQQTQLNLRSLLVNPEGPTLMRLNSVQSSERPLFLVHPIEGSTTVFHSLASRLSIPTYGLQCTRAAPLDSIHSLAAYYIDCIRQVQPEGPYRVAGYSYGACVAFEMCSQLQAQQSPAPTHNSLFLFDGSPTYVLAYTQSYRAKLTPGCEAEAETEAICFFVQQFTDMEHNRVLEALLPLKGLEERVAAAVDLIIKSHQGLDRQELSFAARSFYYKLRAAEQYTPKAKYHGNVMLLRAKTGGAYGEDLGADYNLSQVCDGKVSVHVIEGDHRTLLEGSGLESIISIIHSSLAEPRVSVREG
# Genome polyprotein, sequence (P29990 2492-3391 limits assumed): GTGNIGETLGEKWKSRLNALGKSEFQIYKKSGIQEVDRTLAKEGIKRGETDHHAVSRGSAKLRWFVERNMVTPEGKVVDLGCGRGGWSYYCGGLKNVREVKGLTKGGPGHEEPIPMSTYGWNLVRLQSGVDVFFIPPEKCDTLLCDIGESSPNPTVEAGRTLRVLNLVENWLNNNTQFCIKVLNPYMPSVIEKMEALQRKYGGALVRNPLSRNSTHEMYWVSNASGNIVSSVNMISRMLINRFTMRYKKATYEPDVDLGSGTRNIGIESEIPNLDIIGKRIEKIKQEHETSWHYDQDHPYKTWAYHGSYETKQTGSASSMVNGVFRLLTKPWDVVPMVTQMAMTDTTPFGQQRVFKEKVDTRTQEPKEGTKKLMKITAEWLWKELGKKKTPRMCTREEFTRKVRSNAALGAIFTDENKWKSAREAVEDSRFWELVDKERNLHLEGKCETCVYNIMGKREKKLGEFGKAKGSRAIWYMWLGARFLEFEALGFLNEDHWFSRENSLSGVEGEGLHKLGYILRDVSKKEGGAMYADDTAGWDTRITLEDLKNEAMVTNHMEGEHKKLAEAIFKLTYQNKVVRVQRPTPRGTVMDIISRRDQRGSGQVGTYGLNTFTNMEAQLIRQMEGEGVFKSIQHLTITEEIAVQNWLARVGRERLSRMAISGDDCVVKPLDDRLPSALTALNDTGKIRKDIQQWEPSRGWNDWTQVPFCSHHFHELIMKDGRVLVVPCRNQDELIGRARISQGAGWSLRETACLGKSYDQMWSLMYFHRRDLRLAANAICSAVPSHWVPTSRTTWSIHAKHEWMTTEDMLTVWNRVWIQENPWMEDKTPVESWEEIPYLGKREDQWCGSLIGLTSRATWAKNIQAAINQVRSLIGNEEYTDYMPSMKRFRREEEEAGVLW
# Glyceraldehyde-3-phosphate dehydrogenase, sequence (P04406 whole entry): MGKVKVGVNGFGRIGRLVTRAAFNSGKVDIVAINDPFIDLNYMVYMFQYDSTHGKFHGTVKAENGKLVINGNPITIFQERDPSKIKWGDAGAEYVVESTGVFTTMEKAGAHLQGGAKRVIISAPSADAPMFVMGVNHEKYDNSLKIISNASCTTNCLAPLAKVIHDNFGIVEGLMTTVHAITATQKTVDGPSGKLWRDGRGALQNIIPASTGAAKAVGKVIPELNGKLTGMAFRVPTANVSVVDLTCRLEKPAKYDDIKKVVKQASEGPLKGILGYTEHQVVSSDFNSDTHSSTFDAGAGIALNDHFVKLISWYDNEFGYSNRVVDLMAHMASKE
smiles,measurement,setting,value
CC(=O)c1c(O)cc2c3c1OC(C)(C)C1CCC(C)(CC31)O2 (centres undefined),AC50,[1],5.16 µM (active)
same,AC50,[2],1.07 µM (active)
same,AC50,[3],13.1 µM (active)
same,AC50,[4],9.92 µM (active)
COc1ccccc1N1C(=O)NC(=O)/C(=C\c2cnn(-c3ccccc3)c2)C1=O,IC50,Genome polyprotein,> 100 µM (active)
COC(=O)C1=NN(C(=O)c2ccc(C)cc2)C(O)(c2ccc(Cl)cc2)C1 (centres undefined),EC50,[5],> 300 µM (not active)
same,EC50,[6],37.7 µM (inconclusive)
same,EC50,[7],6.68 µM (active)
Cc1ccn2cc(CCNC(=O)C3CC=CCC3C(=O)O)nc2c1 (centres undefined),EC50,[7],3.76 µM (active)
COc1ccc(CCNc2oc(-c3cccc4ccccc34)nc2P(=O)(OC)OC)cc1OC,AC50,[1],5 µM (active)
same,AC50,[2],7.26 µM (active)
same,AC50,[3],10.6 µM (active)
same,AC50,[4],1.1 µM (active)
Cc1ccc2cc(C#N)c(NCCNC(=O)C3CCC3)nc2c1C,AC50,[1],9.91 µM (active)
same,AC50,[2],9.78 µM (active)
same,AC50,[3],11 µM (active)
same,AC50,[4],8.62 µM (active)
Cc1cccc(CN2CCN(Cc3ccc(Cl)cc3)CC2)c1,AC50,HEK293,53.2 µM (active)
O=C(O)c1cc([N+](=O)[O-])c(Sc2nc3ccccc3[nH]2)c([N+](=O)[O-])c1,IC50,Genome polyprotein,> 100 µM (active)
OCCN1CCN(Cc2cc(Br)cc(Br)c2O)CC1,EC50,[7],0.0293 µM (active)
Cc1sc2ncnc(N3CCC(C(=O)Nc4ccccc4C(C)(C)C)CC3)c2c1C,AC50,HEK293,16.8 µM (active)
N#Cc1c(N)[nH]c(C(=O)c2ccccc2)c1-c1ccc(Cl)cc1,IC50,Fatty acid synthase [8],7.39 µM (active)
same,IC50,Fatty acid synthase [9],13.3 µM (active)
Oc1ccc(Nc2nc3ccccc3nc2Nc2ccc(O)cc2)cc1,EC50,[10],21.4 µM (active)
same,EC50,[11],117 µM (active)
same,EC50,[12],> 195 µM (not active)
same,EC50,[13],> 120 µM (not active)
same,EC50,[14],4.43 µM (active)
same,EC50,[15],1.25 µM (active)
same,EC50,[16],> 30 µM (not active)
same,EC50,[17],1.19 µM (active)
same,IC50,[18],67.3 µM (inactive)
CCOC(=O)[C@@H]1[C@H]2COc3ccc(Br)cc3[C@@H]2N2C(=O)N(c3ccc(F)cc3)C(=O)[C@@]12C,AC50,[1],1.72 µM (active)
same,AC50,[2],5.78 µM (active)
same,AC50,[3],3.77 µM (active)
same,AC50,[4],4.5 µM (active)
CCN(C[C@H]1N[C@@](CC)(C(=O)OC)[C@H]2C(=O)N(Cc3ccccc3)C(=O)[C@@H]12)C(=O)Nc1ccc(OC)cc1,AC50,[1],0.421 µM (active)
same,AC50,[2],0.581 µM (active)
same,AC50,[3],1.23 µM (active)
same,AC50,[4],0.993 µM (active)
COc1cccc(C(=O)NC2CCCN(C3Cc4ccccc4C3)C2)c1OC (centres undefined),EC50,[7],5.31 µM (active)
O=C(/C=C/c1cccc([N+](=O)[O-])c1)NCCSCc1ccc(Cl)cc1Cl,IC50,Fatty acid synthase [8],10.4 µM (active)
same,IC50,Fatty acid synthase [9],9.88 µM (active)
Cc1cc(C)c(NC(=O)COC(=O)c2cc([N+](=O)[O-])ccc2N2CCOCC2)c(C)c1,IC50,Fatty acid synthase [8],6.16 µM (active)
same,IC50,Fatty acid synthase [9],10.8 µM (active)
COc1cccc(N2CCN(C3=C(Cl)C(=O)N(c4ccc(C)cc4)C3=O)CC2)c1,IC50,[19],> 50 µM (inconclusive)
COC(=O)CSC1=NS(=O)(=O)c2ccccc21,IC50,Genome polyprotein,23.2 µM (active)
same,IC50,[20],> 47.1 µM (inactive)
same,EC50,[21],> 53 µM (inactive)
